Positions count from the first letter of the chain named.
What was measured:
[1] = tested on: Human prostate cancer cells LNCaP-FGC; assay: Inhibition of prostate-specific antigen (PSA) production in prostate cancer cells; assay type: cell-based; settings: 72 h, testosterone 1 ng/ml, three days after addition, ELISA, read-out: IC50, PSA production in culture supernatant
Protocol: Human prostate cancer cells LNCaP-FGC were seeded in a 24-well plate at a concentration of 40,000 cells/ml/well or in a 96-well plate at a concentration of 5000 cells/100 μl/well. On the following day, testosterone (final concentration 1 ng/ml) and a compound (final concentration 0.01 to 10 μM) were added. Three days after the addition, the concentration of PSA in the supernatant of the culture solution was measured by ELISA, and IC50 was calculated.

[2] = target: T1, wild type androgen receptor (Homo sapiens, UniProt P10275); assay: AR-binding inhibition test (wild type); settings: radio labeled Mibolerone 3 nM; 4° C., 3 hours; dextran/charcoal method
T1 sequence (P10275 1-920): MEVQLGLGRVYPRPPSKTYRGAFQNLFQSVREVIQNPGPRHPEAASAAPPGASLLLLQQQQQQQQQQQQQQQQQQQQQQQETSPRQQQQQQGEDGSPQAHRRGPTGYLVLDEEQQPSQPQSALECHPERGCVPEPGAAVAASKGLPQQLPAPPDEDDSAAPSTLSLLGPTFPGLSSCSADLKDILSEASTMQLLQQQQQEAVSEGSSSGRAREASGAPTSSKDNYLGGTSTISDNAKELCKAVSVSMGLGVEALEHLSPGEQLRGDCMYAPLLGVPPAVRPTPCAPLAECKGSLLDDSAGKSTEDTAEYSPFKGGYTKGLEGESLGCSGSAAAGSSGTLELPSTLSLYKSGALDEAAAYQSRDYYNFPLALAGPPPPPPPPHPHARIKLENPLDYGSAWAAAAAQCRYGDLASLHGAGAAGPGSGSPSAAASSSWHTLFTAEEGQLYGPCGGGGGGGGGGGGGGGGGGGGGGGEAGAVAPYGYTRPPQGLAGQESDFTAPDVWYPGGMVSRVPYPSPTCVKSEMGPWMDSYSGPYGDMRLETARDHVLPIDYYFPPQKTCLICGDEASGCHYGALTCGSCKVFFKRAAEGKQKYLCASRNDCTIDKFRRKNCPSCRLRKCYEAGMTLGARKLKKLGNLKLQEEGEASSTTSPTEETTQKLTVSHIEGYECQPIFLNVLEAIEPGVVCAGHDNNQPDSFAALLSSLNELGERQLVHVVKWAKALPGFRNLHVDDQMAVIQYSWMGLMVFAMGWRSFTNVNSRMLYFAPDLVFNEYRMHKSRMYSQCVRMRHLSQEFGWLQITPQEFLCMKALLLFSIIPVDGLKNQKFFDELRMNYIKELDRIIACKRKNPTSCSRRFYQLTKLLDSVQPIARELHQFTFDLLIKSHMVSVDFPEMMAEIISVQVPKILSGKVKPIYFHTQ
Protocol: (§1) A solution of wild type or LNCaP type mutant androgen receptor, radio labeled Mibolerone (final concentration 3 nM) and a compound (final concentration 0.001 to 10 μM) were mixed. The mixture was incubated at 4° C. for 3 hours, and by the dextran/charcoal method, B (Bound) and F (Free) Mibolerone were separated. The radioactivity of B was measured and IC50 was calculated.

[3] = target: T2, LNCaP type mutant androgen receptor (Homo sapiens, UniProt P10275, T878A); assay: AR-binding inhibition test (LNCaP type); settings: radio labeled Mibolerone 3 nM; 4° C., 3 hours; dextran/charcoal method
T2 sequence (P10275 1-920 T878A): T1 sequence (P10275 1-920) with T878A
Protocol: as §1

mutation type AR (W741C) = target: T3, mutation type AR (W741C) (Homo sapiens, UniProt P10275, W742C); assay: AR transcription inhibition test (luciferase reporter); assay type: cell-based; settings: Cos-7 cells; test compound 1 μM; DHT 0.04 μM; 24 hours; luciferase activity; read-out: Inhibition rate (%) relative to the control
T3 construct: expressed in transfected cells; host or cells: Cos-7
T3 sequence (P10275 1-920 W742C): T1 sequence (P10275 1-920) with W742C
Protocol: Cos-7 cells were inoculated in a flask at 5,000,000 cells, and incubated in a culture solution (DMEM+10% Dextran Charcoal (DCC)-Fetal Bovine Serum (FBS) +2 mM glutamine) for 24 hours. A vector DNA in which a mutation type AR (W741C) gene was inserted and a vector DNA combined with luciferase gene downstream of the androgen responsive promoter were cotransfected by the liposome method. Two hours later, the culture medium was replaced and incubation was further carried out for 3 hours. DHT (Dihydrotestosterone) at a final concentration 0.04 μM and a test compound at a final concentration of 1 μM were added, and incubation was further carried out for 24 hours. By measuring luciferase activity, AR transcription inhibitory activity of the test compound was examined.

| SMILES | IC50 [1] | IC50 [2] | IC50 [3] | inhibition at 1 µM (mutation type AR (W741C)) |
| --- | --- | --- | --- | --- |
| CC(O)(CS(=O)(=O)c1ccc(F)cc1)C(=O)Nc1ccc(C#N)c(C(F)(F)F)c1 (stereo not shown) [Bicalutamide, bicalutamide, reference compound] | 823 nM |  |  |  |
| CCOC(=O)c1c(C)[nH]c(C)c1-c1ccc([N+](=O)[O-])cc1 [Example 1, Ethyl 2,5-dimethyl-4-(4-nitrophenyl)-1H-pyrrole-3-carboxylate] | 392 nM | 190 nM | 200 nM | 64.3% |
| CCOC(=O)c1c(-c2ccc([N+](=O)[O-])cc2)c(C)n(Cc2ccccc2)c1C [Example 4, Ethyl 1-benzyl-2,5-dimethyl-4-(4-nitrophenyl)-1H-pyrrole-3-carboxylate] | 87 nM | 7.8 nM | 7.5 nM | 20.1% |
| COC(=O)c1c(-c2ccc(C#N)cc2)c(C)n(Cc2ccc(C#N)cc2)c1C [Example 80, Methyl 1-(4-cyanobenzyl)-4-(4-cyanophenyl)-2,5-dimethyl-1H-pyrrole-3-carboxylate] | 34 nM | 40 nM | 68 nM | 80.1% |

Reference: US20050101657A1, “Androgen receptor antagonists” (Takeda Chemical Industries Ltd., priority 2001, published 2005)
